# PubChem BioAssay AID1996
# Details: buffer; pH 7.4; 200.0 µM
row,Compound,solubility kinetic
1,CC(C)Cc1cc(C(=O)Nc2ccccc2)c2ccccc2n1,3.9 µg/mL
2,Cc1cc(Cl)ccc1OC(C)C(=O)OCC(=O)c1ccc[nH]1 (stereo not given),4 µg/mL
3,CC1(C)CC(=O)C(C=NCCN2CCN(C(=O)CCl)CC2)=C(O)C1,> 53.4 µg/mL
4,COc1ccc(C(=O)Nc2ccc(Cl)c(S(=O)(=O)N3CCOCC3)c2)cc1,2.9 µg/mL
5,CC1CCc2c(sc(NC(=O)c3cccs3)c2C(=O)O)C1 (stereo not given),47.4 µg/mL
6,COc1cccc(NC(=O)C2(S(=O)(=O)c3ccc(Cl)cc3)CC2)c1,33.1 µg/mL
7,COc1ccc(CNC(=O)c2cc(=O)c3cc(C)cc(C)c3o2)cc1,< 0.7 µg/mL
8,COc1ccc(OC)c(N2C(=O)CC(=O)NC2=O)c1,> 39.6 µg/mL
9,COc1ccc(NC(=O)c2cc3ccccc3oc2=O)c(OC)c1,< 0.7 µg/mL
10,CN(CC(=O)Nc1ccc(F)cc1)C(=O)c1ccc(OCc2cn3ccccc3n2)cc1,10.4 µg/mL
11,Cc1cccc(OCCn2ccnc2)c1C,22.7 µg/mL
12,Cc1nc(CSc2ccc(Cl)cc2)cs1,6.9 µg/mL
13,Cl.NCc1ccc2[nH]c(=O)[nH]c2c1,> 29.9 µg/mL
14,CSc1ncccc1C(=O)OCC(=O)NC1CCC(C)CC1 (stereo not given),16.4 µg/mL
15,COc1ccc(NC(=O)C(=O)NCCCn2ccnc2)cc1,43.1 µg/mL
16,COCCCN1CN=C(Nc2nc3ccccc3o2)NC1,> 43.4 µg/mL
17,COC(=O)Cn1cnc2c(oc3ccccc32)c1=O,> 38.7 µg/mL
18,COc1cc(C)c(S(=O)(=O)NOCc2ccccc2)c(C)c1C,5.5 µg/mL
19,O=C(Cc1ccc(F)cc1)Nc1ccc(Cl)cn1,8.1 µg/mL
20,Cc1onc(-c2ccccc2)c1C(=O)N1CCN(c2ncccn2)CC1,> 52.4 µg/mL
21,CCOc1cc(C2NC(=O)NC2=O)ccc1O (stereo not given),> 35.4 µg/mL
22,COCCN1CN=C(NS(=O)(=O)c2ccc(C)cc2)NC1,> 46.9 µg/mL
23,O=[N+]([O-])c1ccc(-c2csc(N3CCCCCC3)n2)cc1,0.6 µg/mL
24,CCOC(=O)N1CCN(C(=S)NC(=O)c2cccc(OC)c2)CC1,> 52.7 µg/mL

row,Compound,solubility kinetic
1,COC(=O)c1c(C)nc2nonc2c1N,30 µg/mL
2,COc1cccc(CNC(=O)COC(=O)c2ccc(Cl)s2)c1,1.4 µg/mL
3,O=C(Cc1nc2ccccc2[nH]1)c1ccc([N+](=O)[O-])cc1,37.8 µg/mL
4,CCS(=O)(=O)NCCc1csc(-c2ccc(OC)c(OC)c2)n1,53.2 µg/mL
5,Cc1ccc(NC(=O)c2ccco2)c(NC(=O)c2ccccc2)c1,4.1 µg/mL
6,C(=N\Nc1ccccn1)/c1cccnc1,> 29.7 µg/mL
7,COc1ccc(NC(=O)C2CCCN(C(=O)Nc3ccc(OC)cc3)C2)cc1 (stereo not given),7.5 µg/mL
8,COCC(=O)Nc1ccc(S(=O)(=O)NCC2CCCO2)cc1 (stereo not given),> 49.3 µg/mL
9,Cc1cccc(C)c1NC(=S)NCc1ccccc1,> 40.6 µg/mL
10,Cc1noc(C)c1COC(=O)c1cccnc1Cl,> 40 µg/mL
11,CN1CCN(C(=O)Nc2ccccc2)CC1.O=C(O)C(=O)O,> 46.4 µg/mL
12,Cn1c(/C=C/c2ccc(Cl)cc2)nc2ccccc2c1=O,< 0.3 µg/mL
13,CCCCCc1c(C)[nH]c2nc3ccccc3n2c1=O,0.3 µg/mL
14,Cc1ccc(/C=C/C(=O)Oc2ccc(C#N)cc2)o1,< 0.5 µg/mL
15,CCCCNC(=O)COC(=O)c1cc(C)oc1C,> 38 µg/mL
16,CCc1ccccc1NS(=O)(=O)Cc1ccccc1,40.2 µg/mL
17,COC(=O)C1(C(=O)O)Cc2cc([N+](=O)[O-])ccc2N2CCCC21 (stereo not given),47.9 µg/mL
18,COC(=O)c1ccc(CNC(=O)COC(=O)CCC(=O)c2ccc(F)cc2)cc1,5.5 µg/mL
19,O=C1CSC(c2ccccc2F)N1c1ccccc1F (stereo not given),3.2 µg/mL
20,COc1ccc(Nc2c(-c3ccco3)nc3cccc(C)n23)cc1,1.2 µg/mL
21,Cc1ccc(NC(=O)C2Cc3ccccc3O/C2=N\O)cc1C (stereo not given),3.8 µg/mL
22,O=C(Nc1cccc(Cl)c1N1CCOCC1)c1ccco1,5.7 µg/mL
23,O=C(NCc1ccc(Cl)cc1)[C@@H]1CCCN1S(=O)(=O)c1ccc(Cl)cc1,31.3 µg/mL
24,Cc1ccc(NC(=O)C2CCCN2C(=O)NC2CCCCC2)cc1F (stereo not given),0.9 µg/mL

row,Compound,solubility kinetic
1,Cc1cc(C(=O)CCl)c(C)n1Cc1ccco1,> 37.8 µg/mL
2,O=C(Nc1ccncc1)c1ccc2ccccc2c1,16.5 µg/mL
3,CC(C)c1ccccc1OCCCN1CCCC1.O=C(O)C(=O)O,47 µg/mL
4,CCCN=C1CC(C)(C)CC(=O)/C1=C(/O)CCC,37.5 µg/mL
5,CN1C[C@@H]2C[C@@H](c3cccn3-c3nccs3)N3CCC[C@@]23C1=O,47.2 µg/mL
6,O=C(Nc1ccc(F)cc1F)NC1CCCCCCC1,1.9 µg/mL
7,CN(C(=S)NC(=O)C1CC1)c1ccc(O)cc1,> 37.5 µg/mL
8,O=C(Nc1ccc(N2CCN(C(=O)c3cccs3)CC2)cc1)c1ccco1,1.6 µg/mL
9,CCC(C)NC(=O)c1c(N)n(CCCOC)c2nc3ccccc3nc12 (stereo not given),6.4 µg/mL
10,COc1cc(OC)cc(C(=O)Nc2ccc3c(c2)OCCO3)c1,44.8 µg/mL
11,CN(CC(=O)Nc1cccc(F)c1)C(=O)c1cccc2ccccc12,> 50.5 µg/mL
12,COc1ccccc1CNC(=O)c1cc2ccccc2oc1=O,< 0.7 µg/mL
13,NC(=O)c1c(NC(=O)c2ccccc2F)sc2c1CCCC2,3 µg/mL
14,O=C(O)CN=CC1=C(O)CC(c2ccccc2)CC1=O (stereo not given),39.9 µg/mL
15,Cc1cc(C(=O)NC2Cc3ccccc3C2)c(C)o1,> 38.3 µg/mL
16,CCOC(=O)C1CCN(S(=O)(=O)c2ccc3c4c(cccc24)C(=O)N3CC)CC1,10.4 µg/mL
17,OC(C#CCCN1CCCCC1)(c1ccccc1)C1CCCCC1 (stereo not given),25.1 µg/mL
18,O=C1CC2(CCN(C(=O)COc3ccc(F)cc3)CC2)Oc2ccccc21,> 55.4 µg/mL
19,O=C(COC(=O)c1ccc2ccccc2n1)Nc1ccccc1F,8.9 µg/mL
20,CC(C#N)Sc1ccc(S(=O)(=O)N2CCCC2)cn1 (stereo not given),37.7 µg/mL
21,O=C(CCC(=O)N1CCN(c2ccccn2)CC1)c1cccs1,> 49.4 µg/mL
22,O=[N+]([O-])c1cccnc1Sc1ccccc1Cl,1.7 µg/mL
23,NC(=O)c1cc(-c2ccncc2)nc2ccc(Cl)cc12,37 µg/mL
24,O=[N+]([O-])c1cc(S(=O)(=O)NCCN2CCOCC2)ccc1Cl,> 52.5 µg/mL

row,Compound,solubility kinetic
1,O=C(NCc1cccs1)c1cc(-c2ccc(O)cc2)on1,1.7 µg/mL
2,Cc1cc([N+](=O)[O-])ccc1NC(=O)CCC(=O)N1CCCC1,> 45.8 µg/mL
3,O=C(/C=C/c1cc(Br)ccc1F)Nc1cccnc1,2 µg/mL
4,COc1ccc(C(=O)Nc2cccc(S(=O)(=O)N3CCCC3)c2)cc1S(=O)(=O)N1CCOCC1,5.3 µg/mL
5,O=C(NCC1CC1)Nc1cccc(C(F)(F)F)c1,29.3 µg/mL
6,O=C(Nc1ccc(F)cc1F)c1ccc2ncsc2c1,27.4 µg/mL
7,CN1CC(=O)N(CC(=O)Nc2ccc3c(c2)CCC3)C1=O,> 43.1 µg/mL
8,CCCOc1cc(C)c(S(=O)(=O)NCc2cccs2)cc1C,9.1 µg/mL
9,Clc1ccc(N2CCN(Cc3ccco3)CC2)cc1,22.5 µg/mL
10,CNc1snc(C)c1C(=O)OCC(=O)c1ccc(Cl)cc1,2.6 µg/mL
11,CC1CCCN(C(=O)c2cc(-c3ccco3)nc3ccccc23)C1 (stereo not given),> 48.1 µg/mL
12,CCCC(C)NC(=O)C1c2ccccc2Oc2ccccc21 (stereo not given),1.2 µg/mL
13,Cc1nc(Cc2nnc(SCC(=O)N3CC(=O)Nc4ccccc43)o2)cs1,> 60.2 µg/mL
14,CCOC(=O)c1cnc2c(ccc3ccccc32)c1NCCCN(C)C,46.1 µg/mL
15,CCCCC(CCC(=O)Nc1cccc([N+](=O)[O-])c1)C(=O)O (stereo not given),43.7 µg/mL
16,CC1=NOC(=O)/C1=C/c1ccc(O)c(Br)c1,32.4 µg/mL
17,CN(C(=O)COC(=O)c1cccc(F)c1)c1ccccc1,32 µg/mL
18,O=C(COC(=O)c1ccc[n+]([O-])c1)Nc1cc([N+](=O)[O-])ccc1Cl,> 52.8 µg/mL
19,O=C(NCc1ccccc1F)c1ccc2c(c1)OCCO2,> 43.1 µg/mL
20,Cc1ccc(C)c(N2CCN(c3ccc([N+](=O)[O-])cn3)CC2)c1,< 0.2 µg/mL
21,Cc1cc(F)ccc1NC(=O)Cn1c(C)csc1=O,> 42 µg/mL
22,O=[N+]([O-])c1cccc(-c2cnc3ccccc3n2)c1,< 0.2 µg/mL
23,CN(CCN1CCOCC1)Cc1nc(-c2ccccc2)no1,> 45.4 µg/mL
24,COCCCNC(=O)/C(C#N)=C/c1ccc(F)cc1,38.4 µg/mL

row,Compound,solubility kinetic
1,Brc1ccc(COc2cccc3cccnc23)cc1,2.3 µg/mL
2,COc1ccc(C(=O)OCC(=O)Nc2ccc(Cl)cn2)cc1,1.2 µg/mL
3,Cc1[nH]c2ccccc2c1/C=N/NC(=O)c1ccccc1,> 41.6 µg/mL
4,O=[N+]([O-])c1ccc(Cl)c(C[n+]2cccc3ccccc32)c1.[Br-],56.9 µg/mL
5,CC1CCC2(CC1)NC(=O)N(CC(=O)Nc1ccc(C(N)=O)cc1)C2=O (stereo not given),> 53.8 µg/mL
6,Cc1[nH]c2ccc(F)cc2c1CCN1C(=O)OC(C)(C)C1(C)O (stereo not given),> 48.1 µg/mL
7,O=C(NC(=O)c1ccccc1F)OCc1ccc(Cl)cc1Cl,< 0.7 µg/mL
8,CCN(CC)C(=O)Oc1ccc(Cl)c2cccnc12,40.7 µg/mL
9,COc1cccc(CN2CCN(Cc3cccc(F)c3)CC2)c1.O=C(O)C(=O)O,46.5 µg/mL
10,O=C(Nc1cnccc1C(F)(F)F)NC1CCCCC1,43.1 µg/mL
11,Cc1ccc(C(=O)NCC(=O)OCC(=O)c2ccccc2)s1,> 47.6 µg/mL
12,NS(=O)(=O)c1ccc(NC(=O)c2cccc(Cl)c2)cc1,10 µg/mL
13,COc1ccc(/C=C/C(=O)N(C)c2ccccc2C(=O)O)cc1,45.2 µg/mL
14,CC(=O)NCCc1nc2ccccc2n1Cc1cccc(C)c1,> 46.1 µg/mL
15,O=C(CSc1ncccn1)N1CCCC1,> 33.5 µg/mL
16,CCOC(=O)C1CCCN(CCC(=O)Nc2cc(C)cc(C)c2)C1 (stereo not given),> 49.9 µg/mL
17,COc1cccc(N2CCN(C(=S)Nc3ccc(F)cc3)CC2)c1,0.6 µg/mL
18,CC1CCN(C(=O)COC(=O)c2cc3ccccc3oc2=O)CC1,> 49.4 µg/mL
19,COc1cc2c(cc1OC)C(COc1ccc(F)cc1)NCC2 (stereo not given),43.8 µg/mL
20,COc1cc(NC(=O)c2ccc(OCc3c(C)noc3C)c(OC)c2)cc(OC)c1,5.4 µg/mL
21,CSc1cccc(NC(=O)CC(C)n2ccnc2)c1 (stereo not given),> 41.3 µg/mL
22,CN(C)c1cccc(C(=O)NCCCSc2ccccc2)c1,17.9 µg/mL
23,CC(NS(=O)(=O)c1ccccc1)C1CC2CCC1C2 (stereo not given),6 µg/mL
24,CC(C)(C)C(=O)N(Cc1ccc(Cl)cc1)c1cnccn1,> 45.6 µg/mL
